In the supplement of paper PMC13380429:

How the values were obtained:
Conditions in all cases: 72 h
Caco-2 [1] = test: cell viability relative to DMSO; higher = less toxic
Calu-3 [2] = test: as above
HepG2 [3] = test: as above
U2OS [4] = test: as above
Vero E6 [5] = test: as above
Caco-2 [6] = test: relative viability EC50 (midpoint between 100% and the lowest measured viability); higher = less toxic
Calu-3 [7] = test: as above
HepG2 [8] = test: as above
U2OS [9] = test: as above
Vero E6 [10] = test: as above
Caco-2 [11] = test: drug sensitivity score (DSS) for viability; higher = more toxic; extreme values may be limits of the assay
Calu-3 [12] = test: as above
HepG2 [13] = test: as above
U2OS [14] = test: as above
Vero E6 [15] = test: as above

SMILES | cell viability (Caco-2 [1]; 1 nM) [%] | cell viability (Caco-2 [1]; 10 nM) [%] | cell viability (Caco-2 [1]; 100 nM) [%] | cell viability (Caco-2 [1]; 1000 nM) [%] | cell viability (Caco-2 [1]; 10000 nM) [%] | cell viability (Calu-3 [2]; 1 nM) [%] | cell viability (Calu-3 [2]; 10 nM) [%] | cell viability (Calu-3 [2]; 100 nM) [%] | cell viability (Calu-3 [2]; 1000 nM) [%] | cell viability (Calu-3 [2]; 10000 nM) [%] | cell viability (HepG2 [3]; 1 nM) [%] | cell viability (HepG2 [3]; 10 nM) [%] | cell viability (HepG2 [3]; 100 nM) [%] | cell viability (HepG2 [3]; 1000 nM) [%] | cell viability (HepG2 [3]; 10000 nM) [%] | cell viability (U2OS [4]; 1 nM) [%] | cell viability (U2OS [4]; 10 nM) [%] | cell viability (U2OS [4]; 100 nM) [%] | cell viability (U2OS [4]; 1000 nM) [%] | cell viability (U2OS [4]; 10000 nM) [%] | cell viability (Vero E6 [5]; 1 nM) [%] | cell viability (Vero E6 [5]; 10 nM) [%] | cell viability (Vero E6 [5]; 100 nM) [%] | cell viability (Vero E6 [5]; 1000 nM) [%] | cell viability (Vero E6 [5]; 10000 nM) [%] | relative viability EC50 (Caco-2 [6]) [µM] | relative viability EC50 (Calu-3 [7]) [µM] | relative viability EC50 (HepG2 [8]) [µM] | relative viability EC50 (U2OS [9]) [µM] | relative viability EC50 (Vero E6 [10]) [µM] | drug sensitivity score (Caco-2 [11]) | drug sensitivity score (Calu-3 [12]) | drug sensitivity score (HepG2 [13]) | drug sensitivity score (U2OS [14]) | drug sensitivity score (Vero E6 [15])
CC[C@H](NC(=O)c1c(C)c(-c2ccccc2)nc2ccccc12)c1ccccc1 | 106 | 98.4 | 101 | 103 | 91.2 | 95.8 | 95.2 | 100 | 96.7 | 87.7 | 99 | 108 | 95.4 | 102 | 93.4 | 104 | 101 | 101 | 98.7 | 102 | 103 | 109 | 102 | 103 | 96.7 | > 10 | > 10 | > 10 | > 10 | > 10 | 0 | 0.2 | 0 | 0 | 0
CC(NC(C)(C)C)C(=O)c1cccc(Cl)c1 (stereo not given) [bupropion] | 90.3 | 90.6 | 86.4 | 105 | 91.6 | 104 | 96.3 | 101 | 106 | 101 | 100 | 103 | 103 | 105 | 95 | 95.1 | 96 | 99 | 94.4 | 93.8 | 107 | 105 | 102 | 92.1 | 81.7 | > 10 | > 10 | > 10 | > 10 | > 10 | 0 | 0 | 0 | 0 | 1.3
CC(C)(F)C[C@H](N[C@@H](c1ccc(-c2ccc(S(C)(=O)=O)cc2)cc1)C(F)(F)F)C(=O)NC1(C#N)CC1 [odanacatib] | 96.1 | 99.9 | 99.1 | 94.1 | 90.4 | 98.3 | 97.1 | 100 | 115 | 98.7 | 110 | 104 | 99.4 | 101 | 94.1 | 103 | 108 | 93.3 | 102 | 94.8 | 101 | 98.8 | 99.8 | 99.4 | 106 | > 10 | > 10 | > 10 | > 10 | > 10 | 0 | 0 | 0 | 0 | 0
Cc1ccc(Nc2c(F)cccc2Cl)c(CC(=O)O)c1 [lumiracoxib] | 93 | 97 | 95 | 100 | 107 | 93.7 | 93.9 | 90.8 | 98.9 | 104 | 97 | 103 | 109 | 106 | 118 | 94.1 | 98.7 | 94.8 | 103 | 105 | 95.4 | 94.8 | 105 | 100 | 100 | > 10 | > 10 | > 10 | > 10 | > 10 | 0 | 0 | 0 | 0 | 0
O=C(Nc1cnn2ccc(N3CCC[C@@H]3c3cc(F)ccc3F)nc12)N1CC[C@H](O)C1 [larotrectinib] | 93.9 | 92.8 | 85.3 | 101 | 86 | 96.8 | 106 | 94.9 | 94.7 | 112 | 98.1 | 108 | 103 | 105 | 103 | 97.2 | 105 | 97.9 | 98.1 | 99.6 | 97.9 | 94.3 | 101 | 105 | 93.6 | > 10 | > 10 | > 10 | > 10 | > 10 | 0 | 0 | 0 | 0 | 0
CCCCOc1cc(C(=O)NCCN(CC)CC)c2ccccc2n1 [cinchocaine] | 99.9 | 95 | 103 | 94.2 | 88.1 | 96.6 | 94.4 | 97.4 | 94.3 | 92.3 | 97.2 | 107 | 102 | 94.7 | 89.2 | 100 | 98.2 | 101 | 98.1 | 101 | 103 | 104 | 97.8 | 103 | 94.1 | > 10 | > 10 | > 10 | > 10 | > 10 | 0.3 | 0 | 0.1 | 0 | 0
COc1cc(Nc2ncc(F)c(Nc3ccc4c(n3)NC(=O)C(C)(C)O4)n2)cc(OC)c1OC [R406] | 96.7 | 102 | 86.9 | 92.1 | 75.5 | 85.3 | 89.8 | 97.6 | 101 | 85.6 | 98.1 | 103 | 102 | 92.1 | 88.8 | 95.8 | 100 | 94.3 | 97.8 | 88.9 | 100 | 99 | 93.8 | 91 | 81.9 | > 10 | > 10 | > 10 | > 10 | > 10 | 1.7 | 0.2 | 0.2 | 0 | 0.9
